Data taken from article PMC10461829, “NlpC/P60 peptidoglycan hydrolases of Trichomonas vaginalis have complementary activities that empower the protozoan to control host-protective lactobacilli” (PLOS Pathogens, 2023).

Target: T1, TvNlpC_B3 (Trichomonas vaginalis, UniProt A2FQ38)
T1 construct: gene TVAG_042760; N-terminal His6-3C tag cleaved; E. coli BL21(DE3), pET47b; model Asn23-Tyr137; catalytic Cys53/His99/His111; no SH3 domain; E64 adduct 14,046 Da
Assay: X-ray crystal structure of complex; mass spectrometry of covalent adduct
Format: binding
Conditions: covalent at Cys53 via C2; at least 5:1 molar ratio, 1 h, room temperature; only a 131 Da fragment of E64 modelled, intact adduct seen by mass spectrometry

CC(C)C[C@H](NC(=O)[C@H]1O[C@@H]1C(=O)O)C(=O)NCCCCNC(=N)N [E64]
X-ray crystal structure of complex; mass spectrometry of covalent adduct: The structure of TvNlpC_B3 bound to the inhibitor E64 was determined by molecular replacement
